Reference: US7582645B2, “Pyrimidine derivatives for treatment of hyperproliferative disorders” (Bayer Pharmaceuticals Corporation, priority 2003, dated 2009)
Counter-ions that a name gives are not always drawn.

System: HCT116 cells
Assay: HCT116 cytotoxic activity assay (Alamar Blue, 72 h)
Assay type: cell-based
Settings: Homo sapiens, HCT-116, 72 h compound exposure
Method: Representative compounds of this invention were tested for cytotoxicity using the above-described assay procedure with the following results: […]

[1] = greater than 500 nM but less than or equal to 2 μM

Structure (SMILES)	IC50 [1]	IC50 (less than or equal to 500 nM)	other results
Nc1nc(Nc2ccc(Oc3cncnc3)cc2)cc(-c2ccccc2)n1 [Example 61, 6-phenyl-N4*-[4-(pyrimidin-5-yloxy)phenyl] pyrimidine-2,4-diamine]	0.5 to 2 µM		
Nc1ccc(Oc2ccc(Nc3cc(-c4ccccc4)nc(N)n3)cc2)cc1 [Example 62, N^4-[4-(4-aminophenoxy)phenyl]-6-phenylpyrimidine-2,4-diamine]		≤ 0.5 µM	
Nc1nc(Nc2ccc(Oc3cc(Br)ccn3)cc2)cc(-c2ccccc2)n1 [Example 63, N4*-{4-[(4-bromopyridin-2-yl)oxy]phenyl}-6-phenylpyrimidine-2,4-diamine]		≤ 0.5 µM	
Nc1nc(Nc2ccc(Oc3ccnc(F)c3)cc2)cc(-c2ccccc2)n1 [Example 64, N4*-{4-[(2-fluoropyridin-4-yl)oxy]phenyl}-6-phenylpyrimidine-2,4-diamine trifluoroacetate]		≤ 0.5 µM	
Nc1nc(Nc2ccc(Oc3ccnc(O)c3)cc2)cc(-c2ccccc2)n1 [Example 65, 4-{4-[(2-amino-6-phenylpyrimidin-4-yl)amino]phenoxy}pyridin-2-ol]	0.5 to 2 µM		
Nc1nc(Nc2ccc(Oc3ccnc(Cl)c3)cc2F)cc(-c2ccccc2)n1 [Example 66, N4*-{4-[(2-chloropyridin-4-yl)oxy]-2-fluorophenyl}-6-phenylpyrimidine-2,4-diamine]		≤ 0.5 µM	
Nc1nc(Nc2ccc(Oc3ccnc(C(F)(F)F)c3)cc2F)cc(-c2ccccc2)n1 [Example 67, N4*-(2-fluoro-4-{[2-(trifluoromethyl)pyridin-4-yl]oxy}phenyl)-6-phenylpyrimidine-2,4-diamine]		≤ 0.5 µM	
N#Cc1ccc(Oc2ccc(Nc3cc(-c4ccccc4)nc(N)n3)cc2)cc1 [Example 68, 4-{4-[(2-amino-6-phenylpyrimidin-4-yl)amino]phenoxy} benzonitrile]	0.5 to 2 µM		
NC(=O)c1cc(Oc2ccc(Nc3cc(-c4ccccc4)nc(N)n3)cc2)ccn1 [Example 69, 4-{4-[(2-amino-6-phenylpyrimidin-4-yl)amino]phenoxy} pyridine-2-carboxamide]		≤ 0.5 µM	
CNC(=O)c1cc(Oc2ccc(Nc3cc(-c4ccccc4)nc(N)n3)cc2)ccn1 [Example 70, 4-{4-[(2-amino-6-phenylpyrimidin-4-yl)amino]phenoxy}-N-methylpyridine-2-carboxamide]	0.5 to 2 µM		
CNC(=O)c1cc(Oc2ccc(Nc3cc(-c4ccc(F)cc4)nc(N)n3)cc2)ccn1 [Example 71, 4-(4-{[2-amino-6-(4-fluorophenyl)pyrimidin-4-yl]amino}phenoxy)-N-methylpyridine-2-carboxamide]			IC50 (greater than 2 μM): > 2 µM
CNC(=O)c1cc(Oc2cccc(Nc3cc(-c4ccc(F)cc4)nc(N)n3)c2)ccn1 [Example 72, 4-(3-{[2-amino-6-(4-fluorophenyl)pyrimidin-4-yl]amino}phenoxy)-N-methylpyridine-2-carboxamide]			IC50 (greater than 2 μM): > 2 µM
NC(=O)c1cc(Oc2ccc(Nc3cc(-c4ccc(F)cc4)nc(N)n3)cc2)ccn1 [Example 73, 4-(4-{[2-amino-6-(4-fluorophenyl)pyrimidin-4-yl]amino}phenoxy) pyridine-2-carboxamide]	0.5 to 2 µM		
NC(=O)c1cc(Oc2cccc(Nc3cc(-c4ccc(F)cc4)nc(N)n3)c2)ccn1 [Example 74, 4-(3-{[2-amino-6-(4-fluorophenyl)pyrimidin-4-yl]amino}phenoxy) pyridine-2-carboxamide]			IC50 (greater than 2 μM): > 2 µM
N#Cc1cc(Oc2ccc(Nc3cc(-c4ccc(F)cc4)nc(N)n3)cc2)ccn1 [Example 75, 4-(4-{[2-amino-6-(4-fluorophenyl)pyrimidin-4-yl]amino}phenoxy) pyridine-2-carbonitrile]	0.5 to 2 µM		
CNC(=O)c1cc(Oc2cccc(Nc3cc(-c4cccc(OC)c4)nc(N)n3)c2)ccn1 [Example 76, 4-(3-{[2-amino-6-(3-methoxyphenyl)pyrimidin-4-yl]amino}phenoxy)-N-methylpyridine-2-carboxamide]		≤ 0.5 µM	
CNC(=O)c1cc(Oc2cccc(Nc3cc(-c4ccc(OC)cc4)nc(N)n3)c2)ccn1 [Example 77, 4-(3-{[2-amino-6-(4-methoxyphenyl)pyrimidin-4-yl]amino}phenoxy)-N-methylpyridine-2-carboxamide]			IC50 (greater than 2 μM): > 2 µM
Nc1nc(Nc2ccc(Oc3ccnc(C(=O)NC4CN5CCC4CC5)c3)cc2)cc(-c2ccccc2)n1 (stereo not drawn) [Example 79, 4-{4-[(2-amino-6-phenylpyrimidin-4-yl)amino]phenoxy}-N-1-azabicyclo[2.2.2]oct-3-ylpyridine-2-carboxamide trifluoroacetate]	0.5 to 2 µM		
Nc1nc(Nc2ccc(Oc3ccnc(C(=O)NCC(O)CO)c3)cc2)cc(-c2ccccc2)n1 (stereo not drawn) [Example 80, 4-{4-[(2-amino-6-phenylpyrimidin-4-yl)amino]phenoxy}-N-(2,3-dihydroxypropyl)pyridine-2-carboxamide]		≤ 0.5 µM	
CCCCOc1cc(Oc2ccc(Nc3cc(-c4ccccc4)nc(N)n3)cc2)ccn1 [Example 83, N4*-{4-[(2-butoxypyridin-4-yl)oxy]phenyl}-6-phenylpyrimidine-2,4-diamine]			IC50 (greater than 2 μM): > 2 µM
COCCOc1cc(Oc2ccc(Nc3cc(-c4ccccc4)nc(N)n3)cc2)ccn1 [Example 84, N^4-(4-{[2-(2-methoxyethoxy)pyridin-4-yl]oxy}phenyl)-6-phenylpyrimidine-2,4-diamine]		≤ 0.5 µM	
CN(C)CCOc1cc(Oc2ccc(Nc3cc(-c4ccccc4)nc(N)n3)cc2)ccn1 [Example 85, N^4-[4-({2-[2-(dimethylamino)ethoxy]pyridin-4-yl}oxy)phenyl]-6-phenylpyrimidine-2,4-diamine]	0.5 to 2 µM		
CC(=O)c1ccc(Oc2ccc(Nc3cc(-c4ccccc4)nc(N)n3)cn2)cc1 [Example 87, 1-[4-({5-[(2-amino-6-phenylpyrimidin-4-yl)amino]pyridin-2-yl}oxy)phenyl]ethanone]			IC50 (greater than 2 μM): > 2 µM
Nc1ccc(Cc2ccc(Nc3cc(-c4ccccc4)nc(N)n3)cc2)cc1 [Example 88, N^4*-[4-(4-aminobenzyl)phenyl]-6-phenylpyrimidine-2,4-diamine]		≤ 0.5 µM	
Cc1ccc(Cc2ccc(Nc3cc(-c4ccccc4)nc(N)n3)cc2)cc1 [Example 89, N^4-[4-(4-methylbenzyl)phenyl]-6-phenylpyrimidine-2,4-diamine]	0.5 to 2 µM		
COc1ccc(Cc2ccc(Nc3cc(-c4ccccc4)nc(N)n3)cc2)cc1 [Example 90, N^4-[4-(4-methoxybenzyl)phenyl]-6-phenylpyrimidine-2,4-diamine]	0.5 to 2 µM		
Nc1nc(Nc2ccc(Cc3ccc(F)cc3)cc2)cc(-c2ccccc2)n1 [Example 91, N^4-[4-(4-fluorobenzyl)phenyl]-6-phenylpyrimidine-2,4-diamine]	0.5 to 2 µM		
CN(C)C(=O)NCc1cc(Oc2ccc(Nc3cc(-c4ccccc4)nc(N)n3)cc2)ccn1 [Example 99, N′-[(4-{4-[(2-amino-6-phenylpyrimidin-4-yl)amino]phenoxy}pyridin-2-yl)methyl]-N,N-dimethylurea]		≤ 0.5 µM	
Nc1nc(Nc2ccc(Oc3ccnc(CNC(=O)N4CCOCC4)c3)cc2)cc(-c2ccccc2)n1 [Example 100, N-[(4-{4-[(2-amino-6-phenylpyrimidin-4-yl)amino]phenoxy}pyridin-2-yl)methyl]morpholine-4-carboxamide]	0.5 to 2 µM		
Nc1nc(Nc2ccc(Oc3cc(N4CCOCC4)ccn3)cc2)cc(-c2ccccc2)n1 [Example 105, N4*-{4-[(4-morpholin-4-ylpyridin-2-yl)oxy]phenyl}-6-phenylpyrimidine-2,4-diamine]	0.5 to 2 µM		
